Reference: US7429592B2, “Cyanoanthranilamide derivatives and the use thereof as medicaments” (Schering Aktienegesellschaft, priority 2001, dated 2008)

How the values were obtained:
VEGFR II (KDR) = VEGFR II (KDR) (Homo sapiens, UniProt P35968); experiment: Inhibition of the KDR kinase activity (33P-ATP, poly-(Glu4Tyr) substrate, phosphocellulose filter); type: biochemical; conditions: 10 minutes at room temperature; phosphate incorporation
Protocol: • Stock solution A: 3 mmol of ATP in water, pH 7.0 (−70° C.) • Stock solution B: g-33P-ATP 1 mCi/100 μl • Stock solution C: poly-(Glu4 Tyr) 10 mg/ml in water Solution for Dilutions • Substrate solvent: 10 mmol of DTT, 10 mmol of manganese chloride, 100 mmol of magnesium chloride • Enzyme solution: 120 mmol of tris/HCl, pH 7.5, […] of sodium vanadium oxide
Inhibition of the KDR- and FLT-1 Kinase Activity in the Presence of the Compounds According to the Invention
In a microtiter plate (without protein binding) that tapers to a point, 10 μl of substrate mix (10 μl of volume of ATP stock solution A+25 μCi of g-33P-ATP (about 2.5 μl of stock solution B)+30 μl of poly-(Glu4Tyr) stock solution C+1.21 ml of substrate solvent), 10 μl of inhibitor solution (substances corresponding to the dilutions, 3% DMSO in substrate solvent as a control) and 10 μl of enzyme solution (11.25 μg of enzyme stock solution (KDR or FLT-1 kinase) are added at 4° C. in 1.25 ml of enzyme solution (dilute). It is thoroughly mixed and incubated for 10 minutes at room temperature. Then, 10 μl of stop solution ([…] of EDTA, pH 7.0) is added, mixed, and 10 μl of the solution is transferred to a P 81 phosphocellulose filter. Then, it is washed several times in 0.1 M phosphoric acid. The filter paper is dried, coated with Meltilex and measured in a microbeta counter.
The IC50 values are determined from the inhibitor concentration, which is necessary to inhibit the phosphate incorporation to 50% of the uninhibited incorporation after removal of the blank reading (EDTA-stopped reaction).

Cytochrome P450 1A2 = target: T1, Cytochrome P450 1A2 (Homo sapiens, UniProt P05177); experiment: Cytochrome P450 inhibition (Crespi et al.); type: in vitro ADME; conditions: baculovirus/insect cell-expressed human isoenzyme 1A2; read-out: Inhibition of the Cytochrome P450 Isoenzymes IC50, 1A2
T1 construct: host or cells: baculovirus/insect cells
T1 sequence (P05177 1-516): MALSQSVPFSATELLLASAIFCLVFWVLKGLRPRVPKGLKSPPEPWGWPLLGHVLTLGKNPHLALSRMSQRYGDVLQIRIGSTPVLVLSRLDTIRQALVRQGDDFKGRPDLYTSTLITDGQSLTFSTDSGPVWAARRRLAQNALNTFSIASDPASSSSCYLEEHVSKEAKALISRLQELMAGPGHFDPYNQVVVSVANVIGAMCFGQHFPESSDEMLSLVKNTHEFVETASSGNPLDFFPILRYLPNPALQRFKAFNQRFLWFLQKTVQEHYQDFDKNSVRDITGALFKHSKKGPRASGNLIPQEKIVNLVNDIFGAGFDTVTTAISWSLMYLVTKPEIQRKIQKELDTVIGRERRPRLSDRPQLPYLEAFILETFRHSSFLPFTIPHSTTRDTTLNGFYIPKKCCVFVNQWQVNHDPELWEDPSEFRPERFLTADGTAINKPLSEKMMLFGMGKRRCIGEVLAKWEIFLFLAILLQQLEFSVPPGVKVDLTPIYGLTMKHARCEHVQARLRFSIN
Protocol: (§1) The Cytochrome P450 inhibition was performed according to the publication of Crespi et al. (Anal. Biochem., 248, 188-190 (1997)) with use of baculovirus/insect cell-expressed, human Cytochrome P 450 isoenzymes (1A2, 2C9, 2C19, 2D6, 3A4).

Cytochrome P450 2C19 = target: T2, Cytochrome P450 2C19 (Homo sapiens, UniProt P33261); experiment: Cytochrome P450 inhibition (Crespi et al.); type: in vitro ADME; conditions: baculovirus/insect cell-expressed human isoenzyme 2C19; read-out: Inhibition of the Cytochrome P450 Isoenzymes IC50, 2C19
T2 construct: host or cells: baculovirus/insect cells
Protocol: as §1

Cytochrome P450 2C9 = target: T3, Cytochrome P450 2C9 (Homo sapiens, UniProt P11712); experiment: Cytochrome P450 inhibition (Crespi et al.); type: in vitro ADME; conditions: baculovirus/insect cell-expressed human isoenzyme 2C9; read-out: Inhibition of the Cytochrome P450 Isoenzymes IC50, 2C9
T3 construct: host or cells: baculovirus/insect cells
Protocol: as §1

Cytochrome P450 2D6 = target: T4, Cytochrome P450 2D6 (Homo sapiens, UniProt P10635); experiment: Cytochrome P450 inhibition (Crespi et al.); type: in vitro ADME; conditions: baculovirus/insect cell-expressed human isoenzyme 2D6; read-out: Inhibition of the Cytochrome P450 Isoenzymes IC50, 2D6
T4 construct: host or cells: baculovirus/insect cells
Protocol: as §1

Cytochrome P450 3A4 = target: T5, Cytochrome P450 3A4 (Homo sapiens, UniProt P08684); experiment: Cytochrome P450 inhibition (Crespi et al.); type: in vitro ADME; conditions: baculovirus/insect cell-expressed human isoenzyme 3A4; read-out: Inhibition of the Cytochrome P450 Isoenzymes IC50, 3A4
T5 construct: host or cells: baculovirus/insect cells
Protocol: as §1

Sequence of VEGFR II (KDR) (P35968 20-1356, species assumed): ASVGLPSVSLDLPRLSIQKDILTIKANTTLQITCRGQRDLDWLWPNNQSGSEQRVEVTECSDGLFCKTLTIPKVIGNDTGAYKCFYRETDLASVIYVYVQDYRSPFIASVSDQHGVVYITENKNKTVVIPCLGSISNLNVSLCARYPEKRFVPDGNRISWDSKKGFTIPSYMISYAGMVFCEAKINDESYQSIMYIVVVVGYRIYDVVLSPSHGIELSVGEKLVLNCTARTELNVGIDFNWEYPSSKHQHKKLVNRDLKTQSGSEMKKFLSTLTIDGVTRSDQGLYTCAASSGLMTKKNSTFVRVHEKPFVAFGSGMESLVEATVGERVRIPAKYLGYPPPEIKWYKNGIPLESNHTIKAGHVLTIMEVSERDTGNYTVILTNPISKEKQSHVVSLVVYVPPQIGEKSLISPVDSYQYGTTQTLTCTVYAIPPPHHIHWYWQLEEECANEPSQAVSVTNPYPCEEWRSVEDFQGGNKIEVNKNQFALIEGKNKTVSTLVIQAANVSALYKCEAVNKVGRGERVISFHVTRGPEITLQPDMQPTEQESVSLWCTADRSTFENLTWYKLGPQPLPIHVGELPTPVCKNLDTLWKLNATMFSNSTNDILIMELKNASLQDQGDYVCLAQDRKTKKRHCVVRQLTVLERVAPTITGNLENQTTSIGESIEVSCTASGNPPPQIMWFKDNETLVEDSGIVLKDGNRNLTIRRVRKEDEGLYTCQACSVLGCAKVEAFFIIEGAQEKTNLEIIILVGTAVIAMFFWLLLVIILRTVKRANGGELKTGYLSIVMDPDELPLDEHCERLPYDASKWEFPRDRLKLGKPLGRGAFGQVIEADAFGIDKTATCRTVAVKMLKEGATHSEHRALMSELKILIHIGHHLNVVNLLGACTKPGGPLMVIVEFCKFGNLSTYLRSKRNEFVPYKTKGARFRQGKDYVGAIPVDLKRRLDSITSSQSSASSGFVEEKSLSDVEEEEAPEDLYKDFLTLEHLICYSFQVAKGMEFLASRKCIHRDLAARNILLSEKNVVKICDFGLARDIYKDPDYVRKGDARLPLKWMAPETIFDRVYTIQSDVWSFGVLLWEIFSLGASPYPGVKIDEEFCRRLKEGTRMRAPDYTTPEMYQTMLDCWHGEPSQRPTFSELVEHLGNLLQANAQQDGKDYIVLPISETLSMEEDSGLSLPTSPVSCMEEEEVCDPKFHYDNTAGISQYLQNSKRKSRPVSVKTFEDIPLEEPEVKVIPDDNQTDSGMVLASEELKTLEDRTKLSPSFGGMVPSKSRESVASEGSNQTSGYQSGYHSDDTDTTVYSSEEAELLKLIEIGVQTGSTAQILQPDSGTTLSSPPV
T2 sequence (P33261 whole entry): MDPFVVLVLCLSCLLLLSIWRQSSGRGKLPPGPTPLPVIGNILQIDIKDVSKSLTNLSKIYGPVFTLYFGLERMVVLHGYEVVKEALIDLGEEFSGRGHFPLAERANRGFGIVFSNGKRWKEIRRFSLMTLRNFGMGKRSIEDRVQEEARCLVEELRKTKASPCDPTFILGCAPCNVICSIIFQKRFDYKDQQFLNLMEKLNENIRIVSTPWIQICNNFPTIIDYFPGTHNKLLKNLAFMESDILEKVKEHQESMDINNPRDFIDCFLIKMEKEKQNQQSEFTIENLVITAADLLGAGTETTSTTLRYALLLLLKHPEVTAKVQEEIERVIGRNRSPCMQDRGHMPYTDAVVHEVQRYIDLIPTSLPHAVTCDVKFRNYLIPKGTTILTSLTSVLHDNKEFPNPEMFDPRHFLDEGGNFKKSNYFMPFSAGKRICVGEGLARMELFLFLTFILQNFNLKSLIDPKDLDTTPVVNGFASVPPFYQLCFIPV
T3 sequence (P11712 whole entry): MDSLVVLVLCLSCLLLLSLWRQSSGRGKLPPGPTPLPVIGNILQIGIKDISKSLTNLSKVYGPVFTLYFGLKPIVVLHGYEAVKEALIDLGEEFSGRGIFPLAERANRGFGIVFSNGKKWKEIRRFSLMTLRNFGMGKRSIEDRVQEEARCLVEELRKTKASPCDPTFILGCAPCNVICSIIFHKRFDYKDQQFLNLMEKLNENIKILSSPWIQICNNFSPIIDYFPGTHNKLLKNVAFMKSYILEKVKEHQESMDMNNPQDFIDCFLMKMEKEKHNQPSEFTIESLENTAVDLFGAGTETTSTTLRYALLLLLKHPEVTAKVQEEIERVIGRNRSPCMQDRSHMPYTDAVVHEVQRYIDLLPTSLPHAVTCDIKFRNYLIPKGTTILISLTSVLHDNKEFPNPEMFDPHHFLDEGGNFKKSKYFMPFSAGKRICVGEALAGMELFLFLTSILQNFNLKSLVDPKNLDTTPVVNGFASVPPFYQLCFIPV
T4 sequence (P10635 whole entry): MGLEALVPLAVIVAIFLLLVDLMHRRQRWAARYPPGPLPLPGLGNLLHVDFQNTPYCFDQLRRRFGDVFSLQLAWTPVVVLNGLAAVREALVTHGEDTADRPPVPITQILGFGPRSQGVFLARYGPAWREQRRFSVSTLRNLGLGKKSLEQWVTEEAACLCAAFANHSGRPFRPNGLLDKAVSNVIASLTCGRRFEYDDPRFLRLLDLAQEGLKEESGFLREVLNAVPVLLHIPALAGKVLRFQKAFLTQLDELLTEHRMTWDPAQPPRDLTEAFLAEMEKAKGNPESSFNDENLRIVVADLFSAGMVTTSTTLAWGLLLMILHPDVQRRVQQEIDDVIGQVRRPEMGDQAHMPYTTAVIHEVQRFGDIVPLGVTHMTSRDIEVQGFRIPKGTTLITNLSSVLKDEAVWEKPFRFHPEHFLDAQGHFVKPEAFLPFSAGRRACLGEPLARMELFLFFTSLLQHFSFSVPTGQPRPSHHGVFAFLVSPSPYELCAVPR
T5 sequence (P08684 whole entry): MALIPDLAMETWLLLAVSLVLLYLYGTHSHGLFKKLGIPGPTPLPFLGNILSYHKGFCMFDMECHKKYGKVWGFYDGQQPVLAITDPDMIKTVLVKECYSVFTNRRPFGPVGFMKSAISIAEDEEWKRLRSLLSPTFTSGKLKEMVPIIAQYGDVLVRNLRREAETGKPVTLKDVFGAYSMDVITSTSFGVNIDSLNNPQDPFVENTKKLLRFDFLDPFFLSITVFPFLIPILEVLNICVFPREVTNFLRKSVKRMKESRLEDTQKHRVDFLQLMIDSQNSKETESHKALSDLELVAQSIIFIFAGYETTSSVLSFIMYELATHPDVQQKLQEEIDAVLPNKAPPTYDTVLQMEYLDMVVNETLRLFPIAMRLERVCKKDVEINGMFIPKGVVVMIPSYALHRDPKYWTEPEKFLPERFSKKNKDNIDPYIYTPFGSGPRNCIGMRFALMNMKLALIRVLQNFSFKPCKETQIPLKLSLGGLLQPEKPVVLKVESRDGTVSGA

IC50 (VEGFR II (KDR)) [µM]	melting point	Structure (SMILES)	other results
0.1	–	N#Cc1cc(CNc2ccccc2C(=O)Nc2ccc3cn[nH]c3c2)ccn1 [Example 16]	–
0.05	233.4 °C (dec.)	N#Cc1ncccc1CNc1ccccc1C(=O)Nc1cc2ccccc2cn1 [Example 3]	–
0.3	–	N#Cc1ccc(CNc2ccccc2C(=O)Nc2ccc3c(c2)CC(=O)N3)cn1 [Example 4]	–
0.2	–	N#Cc1cc(CNc2ccccc2C(=O)Nc2ccc3c(c2)NC(=O)C3)ccn1 [Example 13]	–
0.2	155 to 158 °C	Cn1ncc2ccc(NC(=O)c3ccccc3NCc3ccnc(C#N)c3)cc21 [Example 10]	–
0.2	–	Cn1cc2ccc(NC(=O)c3ccccc3NCc3ccnc(C#N)c3)cc2n1 [Example 15]	–
0.01	–	N#Cc1cc(CNc2ccccc2C(=O)Nc2cc3ccccc3cn2)ccn1 [Example 1]	IC50 (Cytochrome P450 1A2): > 30 µM; IC50 (Cytochrome P450 2C19): 1.8 µM; IC50 (Cytochrome P450 2C9): 1.2 µM; IC50 (Cytochrome P450 2D6): > 30 µM; IC50 (Cytochrome P450 3A4): > 30 µM
0.3	173.4 °C	COc1ccc2cc(NC(=O)c3ccccc3NCc3ccc(C#N)nc3)c(=O)oc2c1 [Example 6]	–
0.7	153 to 155 °C	COc1ccc2cc(C)c(NC(=O)c3ccccc3NCc3ccnc(C#N)c3)nc2c1 [Example 12]	–
0.05	173.8 °C	N#Cc1ccc(CNc2ccccc2C(=O)Nc2cc3ccccc3cn2)cn1 [Example 2]	–
0.2	165 to 167 °C	COc1ccc2cc(NC(=O)c3ccccc3NCc3ccnc(C#N)c3)c(=O)oc2c1 [Example 11]	–
0.3	–	N#CCn1ncc2ccc(NC(=O)c3ccccc3NCc3ccnc(C#N)c3)cc21 [Example 5]	–
